Assay results as given in patent publication US9758526B2, “Quinoline-substituted compound” (TAIHO PHARMACEUTICAL CO., LTD., priority 2013, dated 2017).

Assays:
[1] = target: T1, EGFR (T790M/L858R) (Homo sapiens, UniProt P00533, L858R/T790M); assay: EGFR (T790M/L858R) kinase inhibitory activity; type: biochemical; conditions: ATP 1 μM, 25° C. for 120 minutes
T1 construct: purchased Carna Biosciences, Inc
Description: The inhibitory activities of the compounds of the present invention against EGFR (T790M/L858R) kinase activity were measured.
(§1) Among the materials of the inhibitory activity measurement, the substrate peptide and the kinase protein were obtained as follows. A peptide with biotinylated N-terminus (biotin-EEPLYWSFPAKKK) was synthesized with reference to FL-Peptide 22, a reagent for LabChip® series of PerkinElmer, Inc. For the kinase protein, a purified recombinant human EGFR (T790M/L858R) protein of Carna Biosciences, Inc. was purchased.
(§2) The inhibitory activity measurement was performed as follows. The compounds of the present invention were individually dissolved in dimethyl sulfoxide (DMSO), and serial dilutions of these compounds were prepared using DMSO. Subsequently, a solution containing the substrate peptide (final concentration: 250 nM), magnesium chloride (final concentration: 10 mM), manganese chloride (final concentration: 10 mM), and ATP (final concentration: 1 μM) in a buffer solution for kinase reaction (Carna Biosciences, Inc.) was mixed with the dilutions of the compounds (final concentration of DMSO upon kinase reaction: 2.5%) or DMSO (final concentration: 2.5%). EGFR (T790M/L858R) protein was further added thereto, and the mixtures were incubated at 25° C. for 120 minutes to carry out a kinase reaction. EDTA was added thereto to a final concentration of 24 mM to thereby terminate the reaction. A phosphorylated thyrosine detection solution containing europium (Eu)-labeled anti-phosphorylated tyrosine antibody PT66 (PerkinElmer, Inc.) and SureLight APC-SA (PerkinElmer, Inc.) was added to the reaction mixtures, and the mixtures were allowed to stand at room temperature for 2 hours or more. For the background, a sample to which EDTA was added before addition of EGFR (T790M/L858R) protein was incubated at 25° C. for 120 minutes, using DMSO instead of the DMSO solution of the compound. The detection solution was also added to this sample, and the mixture was allowed to stand for 2 hours or more. Finally, for all of the test samples, the amount of fluorescence at the time of irradiation of excitation light having a wavelength of 337 nm was measured at dual wavelengths of 620 nm and 665 nm by PHERAstar FS (BMG LABTECH), and a ratio of the fluorescence amounts at the two wavelengths was obtained as data.
(§3) Based on the above rates, phosphorylation inhibition rates (%) were calculated for the samples to which various concentrations of the compound solutions were added. Finally, the obtained reaction inhibition rates (%) at the respective concentrations were plotted for each compound, and the IC50 value (nM), which is a compound concentration at which phosphorylation by EGFR (T790M/L858R) is inhibited by 50%, was determined using XLfit curve-fitting software (IDBS).

[2] = target: T2, EGFR (d746-750/T790M) (Homo sapiens, UniProt P00533, DEL746-750/T790M); assay: EGFR (d746-750/T790M) kinase inhibitory activity; type: biochemical; conditions: ATP 1.5 μM
T2 construct: purchased Carna Biosciences, Inc
T2 sequence (P00533 with tags, fused parts or gaps DEL746-750/T790M limits assumed): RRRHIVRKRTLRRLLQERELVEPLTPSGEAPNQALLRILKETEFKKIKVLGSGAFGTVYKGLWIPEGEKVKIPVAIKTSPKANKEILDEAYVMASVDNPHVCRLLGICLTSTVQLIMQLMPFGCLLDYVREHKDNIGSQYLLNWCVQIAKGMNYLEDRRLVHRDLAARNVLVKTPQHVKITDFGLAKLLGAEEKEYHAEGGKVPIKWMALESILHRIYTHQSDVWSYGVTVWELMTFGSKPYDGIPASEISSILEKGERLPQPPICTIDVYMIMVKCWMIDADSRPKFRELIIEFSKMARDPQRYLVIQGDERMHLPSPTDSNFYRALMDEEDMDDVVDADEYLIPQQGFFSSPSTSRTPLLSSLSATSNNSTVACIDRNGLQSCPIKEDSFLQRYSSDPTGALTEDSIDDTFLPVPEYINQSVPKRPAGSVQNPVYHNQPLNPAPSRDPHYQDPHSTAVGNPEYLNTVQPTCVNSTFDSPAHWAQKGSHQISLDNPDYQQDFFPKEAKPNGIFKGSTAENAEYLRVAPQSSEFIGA
Description: as §1, §2, §3
The inhibitory activities of the compounds of the present invention against EGFR (d746-750/T790M) kinase activity were measured.
The materials, the measurement method, and the data analysis method were substantially the same as those shown in the above description regarding “Measurement of EGFR (T790M/L858R) Kinase Inhibitory Activity,” except that a purified recombinant human EGFR (d746-750/T790M) protein purchased from Carna Biosciences, Inc. was used as the kinase protein, and the measurement was performed with an ATP final concentration of 1.5 μM. Finally, the IC50 value (nM) of each compound with respect to EGFR (d746-750/T790M) was determined by data analysis.

[3] = target: T3, EGFR (L858R) (Homo sapiens, UniProt P00533, L858R); assay: EGFR (L858R) kinase inhibitory activity; type: biochemical; conditions: ATP 4 μM
T3 construct: purchased Carna Biosciences, Inc
T3 sequence (P00533 25-1210 L858R): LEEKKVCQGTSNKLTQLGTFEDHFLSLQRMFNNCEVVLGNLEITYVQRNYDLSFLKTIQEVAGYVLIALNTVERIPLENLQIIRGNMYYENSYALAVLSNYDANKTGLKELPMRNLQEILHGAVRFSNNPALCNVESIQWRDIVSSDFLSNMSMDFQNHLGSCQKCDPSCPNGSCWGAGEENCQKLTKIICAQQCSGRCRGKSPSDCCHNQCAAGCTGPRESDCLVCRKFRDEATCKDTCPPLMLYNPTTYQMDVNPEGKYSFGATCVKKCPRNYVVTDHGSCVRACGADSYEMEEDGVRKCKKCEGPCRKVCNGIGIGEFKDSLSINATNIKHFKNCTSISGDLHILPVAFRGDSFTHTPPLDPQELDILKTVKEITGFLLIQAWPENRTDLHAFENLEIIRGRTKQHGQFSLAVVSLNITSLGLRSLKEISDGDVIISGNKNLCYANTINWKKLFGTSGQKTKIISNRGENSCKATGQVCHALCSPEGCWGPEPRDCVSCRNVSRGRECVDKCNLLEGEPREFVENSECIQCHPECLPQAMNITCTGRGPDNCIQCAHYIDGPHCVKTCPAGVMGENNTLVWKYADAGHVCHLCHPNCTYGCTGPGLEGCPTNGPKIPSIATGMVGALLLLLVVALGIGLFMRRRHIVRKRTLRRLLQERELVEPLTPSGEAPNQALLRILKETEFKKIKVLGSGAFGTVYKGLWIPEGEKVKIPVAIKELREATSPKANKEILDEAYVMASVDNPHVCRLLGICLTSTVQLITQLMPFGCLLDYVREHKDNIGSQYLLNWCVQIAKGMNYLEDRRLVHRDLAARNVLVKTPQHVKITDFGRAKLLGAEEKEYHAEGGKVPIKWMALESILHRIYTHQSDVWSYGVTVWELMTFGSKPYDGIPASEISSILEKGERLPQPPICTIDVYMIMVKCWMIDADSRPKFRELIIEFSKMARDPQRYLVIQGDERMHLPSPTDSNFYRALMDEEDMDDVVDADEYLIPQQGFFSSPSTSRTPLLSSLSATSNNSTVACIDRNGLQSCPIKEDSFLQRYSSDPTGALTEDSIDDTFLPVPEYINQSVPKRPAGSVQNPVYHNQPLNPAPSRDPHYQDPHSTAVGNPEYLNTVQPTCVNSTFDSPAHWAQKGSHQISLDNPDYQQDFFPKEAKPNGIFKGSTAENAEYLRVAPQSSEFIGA
Description: as §1, §2, §3
The inhibitory activities of the compounds of the present invention against EGFR (L858R) kinase activity were measured.
The materials, the measurement method, and the data analysis method were substantially the same as those shown in the above description regarding “Measurement of EGFR (T790M/L858R) Kinase Inhibitory Activity,” except that a purified recombinant human EGFR (L858R) protein purchased from Carna Biosciences, Inc. was used as the kinase protein, and the measurement was performed with ATP at a final concentration of 4 μM. Finally, the IC50 value (nM) of each compound with respect to EGFR (L858R) was determined by data analysis.

[4] = target: T4, EGFR (d746-750) (Homo sapiens, UniProt P00533, DEL746-750); assay: EGFR (d746-750) kinase inhibitory activity; type: biochemical; conditions: ATP 5 μM, kinase reaction 90 minutes
T4 construct: purchased Carna Biosciences, Inc
T4 sequence (P00533 with tags, fused parts or gaps DEL746-750 limits assumed): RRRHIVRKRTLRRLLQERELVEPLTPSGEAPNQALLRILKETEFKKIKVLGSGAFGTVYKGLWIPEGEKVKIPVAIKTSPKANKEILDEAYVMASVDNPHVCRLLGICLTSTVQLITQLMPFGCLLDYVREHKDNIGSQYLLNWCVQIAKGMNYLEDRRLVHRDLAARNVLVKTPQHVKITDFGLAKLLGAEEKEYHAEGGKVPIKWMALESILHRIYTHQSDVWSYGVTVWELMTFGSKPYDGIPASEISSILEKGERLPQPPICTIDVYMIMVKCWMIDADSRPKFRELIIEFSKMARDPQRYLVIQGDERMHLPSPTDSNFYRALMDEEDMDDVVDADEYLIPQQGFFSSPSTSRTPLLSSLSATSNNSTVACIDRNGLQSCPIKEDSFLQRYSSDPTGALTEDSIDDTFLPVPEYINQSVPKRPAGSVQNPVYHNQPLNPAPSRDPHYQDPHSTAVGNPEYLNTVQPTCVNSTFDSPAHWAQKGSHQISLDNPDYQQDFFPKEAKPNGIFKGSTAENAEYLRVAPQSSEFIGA
Description: as §1, §2, §3
The inhibitory activities of the compounds of the present invention against EGFR (d746-750) kinase activity were measured.
The materials, the measurement method, and the data analysis method were substantially the same as those shown in the above description regarding “Measurement of EGFR (T790M/L858R) Kinase Inhibitory Activity,” except that a purified recombinant human EGFR (d746-750) protein purchased from Carna Biosciences, Inc. was used as the kinase protein, the measurement was performed with ATP at a final concentration of 5 μM, and the incubation for the kinase reaction was performed for 90 minutes. Finally, the IC50 value (nM) of each compound with respect to EGFR (d746-750) was determined by data analysis.

[5] = target: T5, EGFR (WT) (Homo sapiens, UniProt P00533); assay: EGFR (WT) kinase inhibitory activity; type: biochemical; conditions: substrate peptide 500 nM
T5 construct: expressing a cytoplasmic domain of human EGFR (WT) with its N-terminus fused to a FLAG tag; FLAG (N); made in house; host or cells: insect Sf9 cells, baculovirus expression system
T5 sequence (P00533 669-1210 limits assumed): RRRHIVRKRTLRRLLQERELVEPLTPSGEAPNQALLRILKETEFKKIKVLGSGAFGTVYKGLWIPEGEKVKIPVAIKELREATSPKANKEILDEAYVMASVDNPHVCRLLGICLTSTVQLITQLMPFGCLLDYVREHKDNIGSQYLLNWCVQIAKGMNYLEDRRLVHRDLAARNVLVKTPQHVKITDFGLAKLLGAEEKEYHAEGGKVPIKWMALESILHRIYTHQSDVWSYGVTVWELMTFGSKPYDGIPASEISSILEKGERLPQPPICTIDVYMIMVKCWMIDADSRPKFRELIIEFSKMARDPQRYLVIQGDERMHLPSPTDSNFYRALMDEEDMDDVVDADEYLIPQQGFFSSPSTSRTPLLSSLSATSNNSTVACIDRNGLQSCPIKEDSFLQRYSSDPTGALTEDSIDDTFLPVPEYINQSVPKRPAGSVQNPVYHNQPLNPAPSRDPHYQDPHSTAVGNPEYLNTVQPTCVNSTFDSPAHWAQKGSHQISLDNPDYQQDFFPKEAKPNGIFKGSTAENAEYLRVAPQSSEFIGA
Description: as §1, §2, §3
The inhibitory activities of the compounds of the present invention against EGFR (WT) kinase activity were measured.
The materials, the measurement method, and the data analysis method were substantially the same as those shown in the above description regarding “Measurement of EGFR (T790M/L858R) Kinase Inhibitory Activity,” except that a kinase protein prepared by expressing a cytoplasmic domain of human EGFR (WT) with its N-terminus fused to a FLAG tag in insect Sf9 cells using a baculovirus expression system and then purifying it with anti-FLAG antibody agarose (Sigma-Aldrich) was used as the kinase protein, the final concentration of the substrate peptide was 500 nM, and the final concentration of ATP was […]. Finally, the IC50 value (nM) of each compound with respect to EGFR (WT) was determined by data analysis.

[6] = tested on: NCI-H1975 expressing EGFR (T790M/L858R); assay: Growth inhibition, NCI-H1975 expressing EGFR (T790M/L858R); type: cell-based; conditions: Homo sapiens, NCI-H1975, 72 h; cultured three days, CellTiter-Glo
Description: (§4) (1) A human […] lung cancer cell line NCI-H1975 expressing EGFR (T790M/L858R), (2) a human non-small cell lung cancer cell line HCC827 expressing EGFR (d746-750), and (3) a human epithelioid cancer cell line A431 expressing EGFR (WT) were each suspended in complete growth medium recommended by ATCC. The cell suspensions were seeded in each well of a 384-well flat microplate or a 96-well flat plate, and cultured in an incubator containing 5% carbon dioxide gas at 37° C. for one day. Each compound of the present invention was dissolved in DMSO, and serial dilutions of the test compound were prepared using DMSO (to a concentration 500 times the final concentration). The DMSO solution of the test compound or DMSO was diluted with complete growth medium, and the resulting solution was added to each well of the cell culture plate so that the final concentration of DMSO was 0.2%. Then, the cells were cultured in an incubator containing 5% carbon dioxide gas at 37° C. for three days. The number of cells was measured before the addition of the DMSO solution of the test compound, as well as after addition and culture by using a CellTiter-Glo Assay® (produced by Promega) according to a protocol recommended by Promega.
(§5) For each cell, the cell growth inhibition rates of the wells to which the test compounds at various concentrations were added were calculated by the following formula. Then, the obtained inhibition rates (%) at the respective concentrations were plotted for each test compound, and the GI50 value (nM), which is a test compound concentration at which the cell growth can be inhibited by 50%, was determined using XLfit curve-fitting software (IDBS). • Cell Growth Inhibition Rate (%)=(C−T)/(C−CO)×100 • T: Luminescence intensity of well cultured for three days after addition of the test compound solution • C: Luminescence intensity of well cultured for three days after addition of DMSO • C0: Luminescence intensity of well before addition of the test compound solution

[7] = tested on: HCC827 expressing EGFR (d746-750); assay: Growth inhibition, HCC827 expressing EGFR (d746-750); type: cell-based; conditions: Homo sapiens, HCC827, 72 h; cultured three days, CellTiter-Glo
Description: as §4, §5

[8] = tested on: A431 expressing EGFR (WT); assay: Growth inhibition, A431 expressing EGFR (WT); type: cell-based; conditions: Homo sapiens, A-431, 72 h; cultured three days, CellTiter-Glo
Description: as §4, §5

T1 sequence (P00533 25-1210 T790M/L858R): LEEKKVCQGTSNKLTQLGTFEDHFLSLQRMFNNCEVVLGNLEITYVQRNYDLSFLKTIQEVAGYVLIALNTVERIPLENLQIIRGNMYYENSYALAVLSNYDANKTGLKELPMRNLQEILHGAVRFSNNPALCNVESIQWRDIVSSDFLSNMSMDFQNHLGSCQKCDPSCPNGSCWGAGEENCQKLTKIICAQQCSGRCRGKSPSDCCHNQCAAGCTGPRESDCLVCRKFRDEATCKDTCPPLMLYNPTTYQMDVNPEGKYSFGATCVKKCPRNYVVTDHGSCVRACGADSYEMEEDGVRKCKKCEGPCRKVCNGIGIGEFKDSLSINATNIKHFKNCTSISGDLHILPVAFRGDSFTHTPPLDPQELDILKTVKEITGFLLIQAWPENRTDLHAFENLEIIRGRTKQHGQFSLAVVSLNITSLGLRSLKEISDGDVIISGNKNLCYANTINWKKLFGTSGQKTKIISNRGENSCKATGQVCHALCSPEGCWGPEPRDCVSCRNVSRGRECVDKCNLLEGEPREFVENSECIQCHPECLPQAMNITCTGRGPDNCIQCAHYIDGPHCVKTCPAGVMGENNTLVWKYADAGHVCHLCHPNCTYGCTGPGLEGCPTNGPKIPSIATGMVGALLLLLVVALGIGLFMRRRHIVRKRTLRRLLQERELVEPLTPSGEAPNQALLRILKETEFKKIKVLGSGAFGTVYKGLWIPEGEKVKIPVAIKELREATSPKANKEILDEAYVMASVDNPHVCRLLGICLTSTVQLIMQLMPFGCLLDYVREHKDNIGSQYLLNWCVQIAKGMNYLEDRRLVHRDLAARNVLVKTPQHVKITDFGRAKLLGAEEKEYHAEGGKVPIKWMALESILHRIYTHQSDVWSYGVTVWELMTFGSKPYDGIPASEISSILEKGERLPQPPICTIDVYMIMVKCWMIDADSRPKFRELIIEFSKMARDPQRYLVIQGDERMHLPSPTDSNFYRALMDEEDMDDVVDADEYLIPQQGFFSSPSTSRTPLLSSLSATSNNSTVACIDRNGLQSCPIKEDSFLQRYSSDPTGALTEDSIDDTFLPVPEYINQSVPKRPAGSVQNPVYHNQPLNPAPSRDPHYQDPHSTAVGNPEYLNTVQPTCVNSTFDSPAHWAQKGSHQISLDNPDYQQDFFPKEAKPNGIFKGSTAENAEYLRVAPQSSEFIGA

Row | Compound | IC50 [1] [nM] | IC50 [2] [nM] | IC50 [3] [nM] | IC50 [4] [nM] | IC50 [5] [nM] | GI50 [6] [nM] | GI50 [7] [nM] | GI50 [8] [nM]
1 | C=C1c2c(-c3cnc4ccccc4c3)c3c(N)ncnc3n2C[C@H]1NC(=O)/C=C/CN(C)C(C)C [Example 12, (S,E)-N-(4-amino-6-methylene-5-(quinolin-3-yl)-7,8-dihydro-6H-pyrimido[5,4-b]pyrrolizin-7-yl)-4-(isopropyl(methyl)amino)but-2-enamide] | 0.66 | 0.29 | 1.2 | 0.75 | 11 | 240 | 7.9 | 3500
2 | C=CC(=O)N[C@@H]1CCn2c(c(-c3cnc4ccccc4c3)c3c(N)ncnc32)C1=C [Example 13, (R)—N-(4-amino-6-methylene-5-(quinolin-3-yl)-6,7,8,9-tetrahydropyrimido[5,4-b]indolizin-7-yl)acrylamide] | 2.1 | 1.1 | 2.8 | 2.1 | 24 | 150 | 13 | 1200
3 | C=CC(=O)N[C@H]1C=C(C)c2c(-c3cnc4ccccc4c3)c3c(N)ncnc3n2C1 [Example 14, (S)—N-(4-amino-6-methyl-5-(quinolin-3-yl)-8,9-dihydropyrimido[5,4-b]indolizin-8-yl)acrylamide] | 0.24 | < 0.5 | 0.32 | 0.19 | 2.9 | 22 | 2.5 | 1900
4 | C=CC(=O)N[C@H]1CC(=C)c2c(-c3cnc4ccccc4c3)c3c(N)ncnc3n2C1 [Example 15, (S)—N-(4-amino-6-methylene-5-(quinolin-3-yl)-6,7,8,9-tetrahydropyrimido[5,4-b]indolizin-8-yl)acrylamide] | 1.6 | 1.2 | 1.3 | 1.4 | 7.9 | 85 | 22 | 2000
